# Measured values from patent publication US10336751B2, “Tricyclic 4-pyridone-3-carboxylic acid derivatives for the treatment and prophylaxis of hepatitis B virus infection” (priority 2016, dated 2019).
# Test system: HBsAg
# Assay: HBsAg assay (CLIA) in HepG2.2.15 cells
# Assay type: cell-based, HBV
# Conditions: Hepatitis B virus, HepG2.2.15, read-out: IC50 (HBsAg secretion)
# Procedure: HepG2.2.15 cells (Acs et al. Proc Natl Acad Sci USA, 84, (1987), 4641-4), a constitutively HBV-expressing cell line were cultured in DMEM+Glutamax-I medium (Invitrogen, Carlsbad, Calif., USA), supplemented with 10% fetal bovine serum (Invitrogen) and G418 (Invitrogen) at a final concentration of 200 mg/L and maintained in 5% CO2 at 37° C.
# HepG2.2.15 cells were seeded in duplicate into white, 96-well plates at 1.5×10^4 cells/well. The cells were treated with a three-fold serial dilution series of the compounds in DMSO. The final DMSO concentration in all wells was 1% and DMSO was used as no drug control.
# The HBsAg chemiluminescence immunoassay (CLIA) kit (Autobio Diagnostics Co., Zhengzhou, China, Catalog number: CL0310-2) was used to measure the levels of secreted HBV antigens semi-quantitatively. For the detection 50 μL/well culture supernatant was used and HBsAg was quantified using HBsAg chemiluminescence immunoassay (CLIA) kit (Autobio Diagnostics Co., Zhengzhou, China, Catalog number: CL0310-2), 50 μL of the supernatant was transferred to the CLIA assay plate and 50 μL of enzyme conjugate reagent was added into each well. The plates were sealed and gently agitated for 1 hour at room temperature. The supernatant-enzyme-mixture was discarded and wells were washed 6 times with 300 μL of PBS. The residual liquid was removed by plating the CLIA plate […] on absorbent tissue paper. 25 μL of substrates A and B were added to each well. Luminance was measured using a luminometer (Mithras LB 940 Multimode Microplate Reader) after 10 minutes incubation, Dose-response curves were generated and the IC50 value was extrapolated by using the E-WorkBook Suite (ID Business Solutions Ltd., Guildford, UK). The IC50 was defined as the compound concentration (or conditioned media log dilution) at which HBsAg secretion was reduced by 50% compared to the no drug control.
# The compounds of the present invention were tested for their capacity to inhibit HBsAg as described herein. The Examples were tested in the above assay and found to have IC50 of about 0.001 μM to about 50.0 μM.
row,Structure (SMILES),IC50
1,"CCC1CCc2cc(OCC(F)(F)F)c(OC)cc2-c2cc(=O)c(C(=O)O)cn21 (stereo not shown) [Example 10, 6-Ethyl-11-methoxy-2-oxo-10-(2,2,2-trifluoroethoxy)-7,8-dihydro-6H-pyrido[2,1-a][2]benzazepine-3-carboxylic acid]",0.558 µM
2,"CCC1CCc2cc(OCCCCCCNC(C)=O)c(OC)cc2-c2cc(=O)c(C(=O)O)cn21 (stereo not shown) [Example 6, 10-(6-Acetamidohexoxy)-6-ethyl-11-methoxy-2-oxo-7,8-dihydro-6H-pyrido[2,1-a][2]benzazepine-3-carboxylic acid]",12.4 µM
3,"CCC1CCc2cc(OCCCCCCNC(=O)OC(C)(C)C)c(OC)cc2-c2cc(=O)c(C(=O)O)cn21 (stereo not shown) [Example 4, 10-[6-(Tert-butoxycarbonylamino)hexoxy]-6-ethyl-11-methoxy-2-oxo-7,8-dihydro-6H-pyrido[2,1-a][2]benzazepine-3-carboxylic acid]",0.619 µM
4,"CCC1CCc2cc(OCCCCCCN)c(OC)cc2-c2cc(=O)c(C(=O)O)cn21 (stereo not shown) [Example 5, 10-(6-Aminohexoxy)-6-ethyl-11-methoxy-2-oxo-7,8-dihydro-6H-pyrido[2,1-a][2]benzazepine-3-carboxylic acid]",0.602 µM
5,"COc1cc2c(cc1OC)-c1cc(=O)c(C(=O)O)cn1CCC2 [Example 1, 10,11-Dimethoxy-2-oxo-7,8-dihydro-6H-pyrido[2,1-a][2]benzazepine-3-carboxylic acid]",35.4 µM
6,"CCC1CCc2cc(OCc3ccccc3)c(OC)cc2-c2cc(=O)c(C(=O)O)cn21 (stereo not shown) [Example 2, 10-Benzyloxy-6-ethyl-11-methoxy-2-oxo-7,8-dihydro-6H-pyrido[2,1-a][2]benzazepine-3-carboxylic acid]",1.08 µM
7,"CCC1CCc2cc(OCCCOC)c(OC)cc2-c2cc(=O)c(C(=O)O)cn21 (stereo not shown) [Example 3, 6-Ethyl-11-methoxy-10-(3-methoxypropoxy)-2-oxo-7,8-dihydro-6H-pyrido[2,1-a][2]benzazepine-3-carboxylic acid]",0.419 µM
8,"CCC1CCc2cc(OCCCCCCNS(C)(=O)=O)c(OC)cc2-c2cc(=O)c(C(=O)O)cn21 (stereo not shown) [Example 7, 6-Ethyl-10-[6-(methanesulfonamido)hexoxy]-11-methoxy-2-oxo-7,8-dihydro-6H-pyrido[2,1-a][2]benzazepine-3-carboxylic acid]",5.87 µM
9,"CCC1CCc2cc(OCCCS(C)(=O)=O)c(OC)cc2-c2cc(=O)c(C(=O)O)cn21 (stereo not shown) [Example 9, 6-Ethyl-11-methoxy-10-(3-methylsulfonylpropoxy)-2-oxo-7,8-dihydro-6H-pyrido[2,1-a][2]benzazepine-3-carboxylic acid]",1.07 µM
10,"CCC1CCc2cc(OCCCSC)c(OC)cc2-c2cc(=O)c(C(=O)O)cn21 (stereo not shown) [Example 8, 6-Ethyl-11-methoxy-10-(3-methylsulfanylpropoxy)-2-oxo-7,8-dihydro-6H-pyrido[2,1-a][2]benzazepine-3-carboxylic acid]",1.89 µM
